Experimental data published in patent publication US20040235761A1, “Novel virus proliferaton inhibition/virucidal method and novel pyradine nucleotide/pyradine nucleoside analogue” (priority 2001, published 2004).
Like-named read-outs stand apart in the source and are kept apart here.

Key:
[1] = target: Inosine monophosphate dehydrogenase (IMPDH); assay: Inosine monophosphate dehydrogenase (IMPDH) inhibition test; type: biochemical; details: IMPDH enzyme solution from MDCK cell homogenate, 37° C., 1 hour; read-out: 50% inhibition concentration
Description: MDCK cells monolayer-cultured on a culture plate were suspended in 0.05 M Tris-HCl (pH 8.0), and the suspension was homogenated with a Downs homogenizer to obtain a cell homogenate. The cell homogenate was centrifuged at 16000×g, and the thus obtained supernatant was used as an IMPDH enzyme solution.
As reaction compositions, 0.1 M Tris-HCl (pH 8.0), 0.1 M KCl, 30 mM EDTA, 5 mM NAD, 5 mg/mL bovine serum albumin, and 0.04 mM [8-^14C]-inosine 5′-monophosphate were used. After completion of reaction at 37° C. for 1 hour, 2 volumes of acetonitrile were added to terminate the reaction, and the reaction product was concentrated. The obtained concentrate was analyzed under the HPLC conditions indicated below. The ratio between the reaction substrate ([^14C]-inosine 5′-monophosphate) and the reaction product ([^14C]-xanthosine 5′-monophosphate) was obtained, and the reaction rate was calculated. Ribavirin monophosphate was used as a control compound.

[2] = system: bovine diarrhea virus (BVDV) NADL; assay: Anti-BVDV effect (plaque inhibition in MDBK cells); type: cell-based; details: Bovine viral diarrhea virus isolates and strains, 72 h, 100 μg/mL test compound, 70 PFU/well, 3 days, read-out: Inhibition rate (plaque inhibition rate)
Description: MDBK cells that had fully grown in a 6-well culture plate were infected with bovine diarrhea virus (BVDV) NADL at 70 PFU/well. After 60 minutes, the infection solution was removed, and a test culture solution (E′-MEM) containing 5% horse serum and 1% agar (SeaPlaque Agar) that contained a 100 μg/mL test compound was added thereto. The mixture was fully solidified and then cultured for 3 days under conditions of 37° C., a humidity of 100% and 5% CO2. After completion of the culture, the test plate was fixed with a 3% formaldehyde solution, and the agar medium was removed with running water, followed by staining with a 1% crystal violet solution, so as to count the number of plaques. The plaque inhibition rate was expressed by the percentage obtained by comparing with a control to which no test compounds were added.

[3] = system: influenza virus A/PR/8/34; assay: Anti-influenza effect (plaque inhibition in MDCK cells); type: cell-based; details: PR/8, MDCK, 72 h, read-out: Inhibition rate (plaque inhibition rate)
[4] = target: T1, Influenza virus polymerase (crude enzyme from virus particles) (Influenza A virus, UniProt P03431); assay: Polymerase inhibition test (influenza virus); type: biochemical; details: 30° C., 60 minutes, 32P-GTP incorporation, read-out: 50% inhibition concentration
T1 construct: these particles were used as polymerase crude enzymes; from tissue; host or cells: influenza virus particles lysed with Triton N101/LPC (crude enzyme)
Description: Influenza virus particles were treated with a dissolving solution (100 mM Tris-HCl (pH 8), 100 mM KCl, 5 mM MgCl2, 1.5 mM DTT, 5% glycerol, 1.5% Triton N101, 1% LPC), and these particles were used as polymerase crude enzymes. Each of the test compounds with different concentrations was added to a reaction buffer (100 mM Tris-HCl (pH 8.0), 100 mM KCl, 5 mM MgCl2, 1 mM DTT, 0.25% Triton N101, 0.25 mM ApG, 0.1 mM ATP, 0.05 mM CTP, 0.05 mM UTP, 0.0005 mM GTP, ^32P-GTP, crude enzyme), followed by incubation at 30° C. for 60 minutes. Thereafter, 10% trichloroacetic acid (TCA) was added thereto, and the mixture was retained on ice for 60 minutes. Thereafter, it was dropped on a GF/C filter, and the filter was then washed with 5% TCA. The filter was dried, and scintillation cocktail was added thereto. The radioactivity was determined using a liquid scintillation counter. The measurement value was given as a 50% inhibition concentration, providing that a group in which no test compounds were added was defined as 100%.

[5] = target: T2, HCV polymerase (NS5B region of hepatitis C virus) (Hepatitis C virus genotype 1a, UniProt P27958); assay: Polymerase inhibition test (hepatitis C virus); type: biochemical
T2 construct: The NS5B region of hepatitis C virus was produced in Escherichia coli; made in house; host or cells: Escherichia coli
Description: The NS5B region of hepatitis C virus was produced in Escherichia coli, and it was used as HCV polymerase for the test. The sequence of the 3′-region of HCV was prepared by the in vitro transcription method, and it was used as an RNA template for the test.
Each of the test compounds with different concentrations was added to a reaction buffer (20 mM Tris-HCl (pH 8.0), 0.05 mM MnCl2, 1 mM DTT, 20 units RNase inhibitor, [α-^32P]GTP, 0.05 mM each of ATP, CTP and UTP, and 2 μg/mL RNA template), followed by incubation at 30° C. for 2 hours. Thereafter, 10% TCA was added to terminate the reaction. Thereafter, the reaction solution was dropped on a DE81 filter, and the filter was then washed with 5% TCA. The filter was dried, and scintillation cocktail was added thereto. The radioactivity was determined using a liquid scintillation counter. The measurement value was given as a 50% inhibition concentration, providing that a group in which no test compounds were added was defined as 100%.

[6] = target: human RNA polymerase (Hela cell nucleus extract) (Homo sapiens, UniProt P24928+P30876); assay: Human RNA polymerase inhibition test; type: biochemical; details: 30° C., 1 hour, read-out: 50% inhibition concentration
Description: A Hela cell nucleus extract (Promega) was used as human RNA polymerase for the test. The pCMP script was cleaved with restriction enzymes and then purified, and it was used as a DNA template for the test.
Each of the test compounds with different concentrations was added to a reaction buffer (Hela cell nucleus extract, 3 mM MgCl2, 0.4 mM each of ATP, UTP and CTP, 0.016 mM GTP, 16 μg/mL DNA template, 0.4 mCi/mL [α-^32P]GTP), followed by incubation at 30° C. for 1 hour. After completion of the reaction, the reaction solution was dropped on a DE81 filter, and the filter was then washed with 5% Na2HPO4 solution 3 times for 30 minutes, and then with distilled water once for 1 minute. The filter was dried, and scintillation cocktail was added thereto. The radioactivity was determined using a liquid scintillation counter. The measurement value was given as a 50% inhibition concentration, providing that a group in which no test compounds were added was defined as 100%.

[7] = NS5B produced in Escherichia coli, 30° C., 2 hours, read-out: 50% inhibition concentration

T1 sequence (P03431 whole entry, looked up): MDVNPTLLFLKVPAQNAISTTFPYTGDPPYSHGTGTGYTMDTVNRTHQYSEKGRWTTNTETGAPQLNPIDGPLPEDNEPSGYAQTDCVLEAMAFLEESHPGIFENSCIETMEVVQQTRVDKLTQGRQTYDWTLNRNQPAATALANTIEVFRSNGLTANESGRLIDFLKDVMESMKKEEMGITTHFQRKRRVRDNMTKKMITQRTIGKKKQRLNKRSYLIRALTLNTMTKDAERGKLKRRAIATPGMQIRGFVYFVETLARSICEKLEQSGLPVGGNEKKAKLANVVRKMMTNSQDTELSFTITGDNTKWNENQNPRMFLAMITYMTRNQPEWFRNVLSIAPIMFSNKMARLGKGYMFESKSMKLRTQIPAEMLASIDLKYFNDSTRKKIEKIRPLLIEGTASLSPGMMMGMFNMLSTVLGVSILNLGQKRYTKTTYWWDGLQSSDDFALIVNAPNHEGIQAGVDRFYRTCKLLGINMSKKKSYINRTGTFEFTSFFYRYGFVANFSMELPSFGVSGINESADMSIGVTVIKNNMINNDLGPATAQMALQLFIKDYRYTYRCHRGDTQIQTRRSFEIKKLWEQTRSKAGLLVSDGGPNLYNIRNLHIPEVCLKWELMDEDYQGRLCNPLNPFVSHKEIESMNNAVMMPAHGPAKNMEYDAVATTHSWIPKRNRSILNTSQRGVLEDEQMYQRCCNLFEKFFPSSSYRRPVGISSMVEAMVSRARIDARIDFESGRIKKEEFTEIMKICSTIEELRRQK
T2 sequence (P27958 2421-3011): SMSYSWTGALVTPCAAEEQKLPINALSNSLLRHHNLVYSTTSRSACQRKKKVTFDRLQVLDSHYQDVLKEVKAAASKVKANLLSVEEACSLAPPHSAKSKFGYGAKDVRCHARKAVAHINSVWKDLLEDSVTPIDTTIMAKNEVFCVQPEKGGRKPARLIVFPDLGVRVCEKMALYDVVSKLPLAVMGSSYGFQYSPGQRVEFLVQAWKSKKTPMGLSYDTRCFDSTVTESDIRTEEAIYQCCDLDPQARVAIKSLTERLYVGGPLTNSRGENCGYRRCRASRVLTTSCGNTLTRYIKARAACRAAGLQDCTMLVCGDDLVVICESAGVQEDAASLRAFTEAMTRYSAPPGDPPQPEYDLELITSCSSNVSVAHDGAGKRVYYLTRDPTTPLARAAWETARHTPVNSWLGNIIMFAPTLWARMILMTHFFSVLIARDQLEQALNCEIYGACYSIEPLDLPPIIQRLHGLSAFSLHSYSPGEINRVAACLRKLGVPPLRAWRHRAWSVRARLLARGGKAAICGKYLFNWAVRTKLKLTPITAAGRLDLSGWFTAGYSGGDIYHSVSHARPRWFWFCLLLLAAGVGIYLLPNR

For NC(=O)c1ncn([C@@H]2O[C@H](COP(=O)(O)O)[C@@H](O)[C@H]2O)n1 [Control compound, Ribavirin monophosphate, reference compound], the IC50 [1] was 1.9 µM.

CC(C)(C)C(=O)SCCOP(=O)(OCCSC(=O)C(C)(C)C)OC[C@H]1O[C@@H](n2cc(Cl)nc(C(N)=O)c2=O)[C@H](O)[C@@H]1O [Example 4, 2,2-dimethyl-thiopropionic acid S-(2-{[(2R,3S,4R,5R)-5-(3-carbamoyl-5-chloro-2-oxo-2H-pyrazine-1-yl)-3,4-dihydroxy-tetrahydro-furan-2-ylmethoxy]-[2-(2,2-dimethyl-propionylsulfanyl)-ethoxy]-phosphoryloxy]-ethyl) ester] showed an inhibition at 100 µg/mL [2] of 68%.

For CC(C)(C)C(=O)OCOP(=O)(OCOC(=O)C(C)(C)C)OC[C@H]1O[C@@H](n2ccnc(C(N)=O)c2=O)[C@H](O)[C@@H]1O [Example 6, 2,2-dimethyl-propionic acid[(2R,3S,4R,5R)-5-(3-carbamoyl-2-oxo-2H-pyrazine-1-yl)-3,4-dihydroxy-tetrahydro-furan-2-ylmethoxy]-(2,2-dimethyl-propionyloxymethoxy)-phosphoryloxymethyl ester], the inhibition at 100 µg/mL [3] was 100% and the inhibition at 100 µg/mL [2] was 57%.

For Cc1cn([C@@H]2O[C@H](CO)[C@@H](O)[C@H]2O)c(=O)c(C(N)=O)n1 [Example 11, 4-[(2R,3R,4S,5R)-3,4-dihydroxy-5-(hydroxymethyl)tetrahydro-2-furanyl]-6-methyl-3-oxo-3,4-dihydro-2-pyrazinecarboxamide], the inhibition at 100 µg/mL [3] was 24%.

In the case of CC(=O)OC[C@H]1O[C@@H](n2ccnc(C(N)=O)c2=O)[C@H](OC(C)=O)[C@@H]1OC(C)=O [Example 22, (2R,3R,4R,5R)-4-(acetyloxy)-2-[(acetyloxy)methyl]-5-[3-(aminocarbonyl)-2-oxo-1(2H)-pyrazinyl]tetrahydro-3-furanyl acetate], the inhibition at 100 µg/mL [3] is reported as 33%.

Work on CC(=O)OC[C@H]1O[C@@H](n2cc(F)nc(C(N)=O)c2=O)[C@H](OC(C)=O)[C@@H]1OC(C)=O [Example 31, (2R,3R,4R, 5R)-4-(acetyloxy)-2-[(acetyloxy)methyl]-5-[3-(aminocarbonyl)-5-fluoro-2-oxo-1(2H)-pyrazinyl] tetrahydro-3-furanyl acetate] yielded an inhibition at 100 µg/mL [3] of 44%.

For NC(=O)c1nc(F)cn([C@@H]2O[C@H](CO)[C@@H](O)[C@H]2O)c1=O [Example 32, 4-[(2R,3R,4S,5R)-3,4-dihydroxy-5-(hydroxymethyl)tetrahydro-2-furanyl]-6-fluoro-3-oxo-3,4-dihydro-2-pyrazinecarboxamide], the inhibition at 100 µg/mL [3] was 100% and the inhibition at 100 µg/mL [2] was 100%.

NC(=O)c1nc(F)cn([C@@H]2O[C@H](COP(=O)(O)O)[C@@H](O)[C@H]2O)c1=O [Example 37, [(2R,3S,4R,5R)-5-[3-(aminocarbonyl)-5-fluoro-2-oxo-1(2H)-pyrazinyl]-3,4-dihydroxytetrahydro-2-furanyl]methyl phosphate] was tested, and the IC50 [1] was 740 µM.

NC(=O)c1nc(Cl)cn([C@@H]2O[C@H](CO)[C@@H](O)[C@H]2O)c1=O [Reference Example 7, 6-chloro-4-[(2R,3R,4S,5R)-3,4-dihydroxy-5-(hydroxymethyl)tetrahydro-2-furanyl]-3-oxo-3,4-dihydro-2-pyrazinecarboxamide] showed an inhibition at 100 µg/mL [3] of 42%.

With CC(=O)O[C@@H]1[C@H](OC(C)=O)[C@@H](CO)O[C@H]1n1cc(F)nc(C(N)=O)c1=O [Reference Example 12, (2R,3R,4R,5R)-4-(acetyloxy)-2-[3-(aminocarbonyl)-5-fluoro-2-oxo-1(2H)-pyrazinyl]-5-(hydroxymethyl)tetrahydro-3-furanyl acetate] the inhibition at 100 µg/mL [3] was 78%.

Molecule NC(=O)c1nc(F)cn([C@@H]2O[C@H](COP(=O)(O)OP(=O)(O)OP(=O)(O)O)[C@@H](O)[C@H]2O)c1=O [Reference Example 16, [[2R,3S,4R,5R]-5-[3-(aminocarbonyl)-5-fluoro-2-oxo-1(2H)-pyrazinyl]-3,4-dihydroxytetrahydro-2-furanyl]methyl triphosphate] has an IC50 [4] of 0.14 µM and an IC50 [5, 7] of 0.75 µM.

For NC(=O)c1nc(Cl)cn([C@@H]2O[C@H](COP(=O)(O)OP(=O)(O)OP(=O)(O)O)[C@@H](O)[C@H]2O)c1=O [Reference Example 17, {(2R,3S,4R,5R)-5-[3-(aminocarbonyl)-5-chloro-2-oxo-1(2H)-pyrazinyl]-3,4-dihydroxytetrahydro-2-furanyl}methyl triphosphate], the IC50 [4] was 0.33 µM and the IC50 [5, 7] was 2.7 µM.

NC(=O)c1nccn([C@@H]2O[C@H](COP(=O)(O)OP(=O)(O)OP(=O)(O)O)[C@@H](O)[C@H]2O)c1=O [Reference Example 22, {(2R,3S,4R,5R)-5-[3-(aminocarbonyl)-2-oxo-1(2H)-pyrazinyl]-3,4-dihydroxytetrahydro-2-furanyl} methyl triphosphate] was tested, and the IC50 [4] was 0.076 µM, the IC50 [5, 7] was 0.088 µM and the IC50 [6] was greater than 200 µM.

For Cc1cn([C@@H]2O[C@H](COP(=O)(O)OP(=O)(O)OP(=O)(O)O)[C@@H](O)[C@H]2O)c(=O)c(C(N)=O)n1 [Reference Example 23, {(2R,3S,4R,5R)-5-[3-(aminocarbonyl)-5-methyl-2-oxo-1(2H)-pyrazinyl]-3,4-dihydroxytetrahydro-2-furanyl}methyl triphosphate], the IC50 [4] was 0.25 µM and the IC50 [5] was 2.2 µM.

NC(=O)c1nccn([C@@H]2O[C@H](COP(=O)(O)OP(=O)(O)OP(=O)(O)O)C[C@H]2O)c1=O [Reference Example 25, {(2S,4R,5R)-5-[3-(aminocarbonyl)-2-oxo-1(2H)-pyrazinyl]-4-hydroxytetrahydro-2-furanyl} methyl triphosphate] showed an IC50 [4] of 28 µM, an IC50 [5, 7] of 1.6 µM and an IC50 [6] greater than 200 µM.

NC(=O)c1nccn([C@@H]2O[C@H](COP(=O)(O)O)[C@@H](O)[C@H]2O)c1=O [Reference Example 30, {(2R,3S,4R,5R)-5-[3-(aminocarbonyl)-2-oxo-1(2H)-pyrazinyl]-3,4-dihydroxytetrahydro-2-furanyl}methyl phosphate] was tested, and the IC50 [1] was 980 µM.
